Assay results taken from BindingDB's records for patent US12486274 (Verge Analytics, 2025).
pIC50: −log10 of the molar value.

Biological target: 1-phosphatidylinositol 3-phosphate 5-kinase (Homo sapiens, UniProt Q9Y2I7)
Assay: Inhibition of PIKfyve
Method: The kinase reactions were assembled in 384-well plates (Greiner) in a total volume of […] as follows. Kinase protein was pre-diluted in an assay buffer comprising 25 mM HEPES, pH 7.5, 1 mM DTT, 2.5 mM MgCl2, and 2.5 mM MnCl2, and 0.005% Triton X-100, and dispensed into a 384-well plate (10 μL per well). Test compounds were serially pre-diluted in DMSO and added to the protein samples by acoustic dispensing (Labcyte Echo). The concentration of DMSO was equalized to 1% in all samples. All test compounds were tested at 12 concentrations. Apilimod was used as a reference compound and was tested in identical manner in each assay plate. Control samples (0%-inhibition, in the absence of inhibitor, DMSO only) and 100%-inhibition (in the absence of enzyme) were assembled in replicates of four and were used to calculate %-inhibition in the presence of compounds. The reactions were initiated by addition of 10 μL of 2× PI3P/PS substrate supplemented with ATP. The final concentration of enzyme was 2 nM, the final concentration of ATP was […], and the final concentration of PI3P/PS substrate was 1 μM (PI3P). The kinase reactions were allowed to proceed for 3 h at room temperature. Following incubation, the reactions were quenched by addition of […] of termination buffer (100 mM HEPES, pH 7.5, 0.01% Triton X-100, 20 mM EDTA).

Sequence of 1-phosphatidylinositol 3-phosphate 5-kinase (Q9Y2I7 whole entry): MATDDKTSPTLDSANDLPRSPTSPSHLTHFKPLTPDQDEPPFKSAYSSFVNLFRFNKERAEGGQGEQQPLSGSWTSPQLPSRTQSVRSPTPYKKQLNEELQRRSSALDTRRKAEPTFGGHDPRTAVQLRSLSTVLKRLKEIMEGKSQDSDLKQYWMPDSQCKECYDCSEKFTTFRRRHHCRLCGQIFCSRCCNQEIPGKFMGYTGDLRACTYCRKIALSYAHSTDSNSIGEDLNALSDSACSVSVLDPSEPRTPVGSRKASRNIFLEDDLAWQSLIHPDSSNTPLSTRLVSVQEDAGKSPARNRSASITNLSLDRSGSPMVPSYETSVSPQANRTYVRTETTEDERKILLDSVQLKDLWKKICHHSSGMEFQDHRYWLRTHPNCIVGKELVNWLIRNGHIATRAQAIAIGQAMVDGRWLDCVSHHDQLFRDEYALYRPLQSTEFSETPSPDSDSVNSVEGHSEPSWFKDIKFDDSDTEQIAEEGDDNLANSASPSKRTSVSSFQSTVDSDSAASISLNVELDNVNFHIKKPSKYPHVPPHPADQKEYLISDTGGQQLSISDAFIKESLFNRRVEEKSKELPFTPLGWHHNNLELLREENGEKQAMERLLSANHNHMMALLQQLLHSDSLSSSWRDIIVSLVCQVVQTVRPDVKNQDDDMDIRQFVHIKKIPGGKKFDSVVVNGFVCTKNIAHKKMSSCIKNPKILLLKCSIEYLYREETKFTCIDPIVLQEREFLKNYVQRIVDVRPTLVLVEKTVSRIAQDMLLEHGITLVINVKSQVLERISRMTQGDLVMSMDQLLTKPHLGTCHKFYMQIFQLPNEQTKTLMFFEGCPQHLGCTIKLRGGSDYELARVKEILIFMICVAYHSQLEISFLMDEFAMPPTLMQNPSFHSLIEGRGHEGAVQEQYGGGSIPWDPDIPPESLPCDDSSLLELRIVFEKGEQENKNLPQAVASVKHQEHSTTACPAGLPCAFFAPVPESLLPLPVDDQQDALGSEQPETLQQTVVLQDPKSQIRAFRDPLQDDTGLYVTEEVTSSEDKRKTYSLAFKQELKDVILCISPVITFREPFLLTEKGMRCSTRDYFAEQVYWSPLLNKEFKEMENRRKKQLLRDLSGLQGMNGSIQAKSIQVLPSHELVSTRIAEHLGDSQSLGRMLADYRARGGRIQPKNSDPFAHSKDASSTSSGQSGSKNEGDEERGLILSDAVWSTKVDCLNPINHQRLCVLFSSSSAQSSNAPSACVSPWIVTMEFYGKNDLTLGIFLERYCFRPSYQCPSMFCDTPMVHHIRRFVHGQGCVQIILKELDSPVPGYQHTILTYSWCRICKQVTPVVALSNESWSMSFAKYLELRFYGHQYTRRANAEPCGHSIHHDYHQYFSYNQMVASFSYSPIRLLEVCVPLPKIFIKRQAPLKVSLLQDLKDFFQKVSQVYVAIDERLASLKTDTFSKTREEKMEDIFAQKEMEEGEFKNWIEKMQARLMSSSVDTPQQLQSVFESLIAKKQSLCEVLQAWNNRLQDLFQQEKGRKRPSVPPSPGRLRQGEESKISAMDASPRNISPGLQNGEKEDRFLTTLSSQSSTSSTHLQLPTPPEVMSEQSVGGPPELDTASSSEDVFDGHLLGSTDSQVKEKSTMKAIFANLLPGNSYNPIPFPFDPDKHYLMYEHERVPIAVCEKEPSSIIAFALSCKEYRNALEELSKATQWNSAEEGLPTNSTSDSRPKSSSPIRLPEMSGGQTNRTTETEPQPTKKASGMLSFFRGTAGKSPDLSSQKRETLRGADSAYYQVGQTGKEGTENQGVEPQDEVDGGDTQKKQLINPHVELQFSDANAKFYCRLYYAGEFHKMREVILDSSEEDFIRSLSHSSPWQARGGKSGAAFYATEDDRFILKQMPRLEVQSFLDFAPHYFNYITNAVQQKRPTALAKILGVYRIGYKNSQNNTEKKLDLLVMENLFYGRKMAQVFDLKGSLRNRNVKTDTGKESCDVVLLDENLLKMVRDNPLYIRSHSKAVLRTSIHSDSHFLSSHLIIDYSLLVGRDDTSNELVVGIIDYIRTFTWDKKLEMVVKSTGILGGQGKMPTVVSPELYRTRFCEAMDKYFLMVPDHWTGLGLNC

Nc1ccc(-c2cc3nc(-n4ccc(-c5ccccc5)n4)cc(N4CCOCC4)n3n2)cn1 [US12486274, Compound 98] gave a pIC50 of 7.52.
